# Test results reported in patent publication US9850521B2 (Agilent Technologies, Inc., priority 2014, dated 2017).
# Entries after “also recorded” stand apart in the source; their conditions may differ.
# Target: Cas9 (Streptococcus pyogenes serotype M1, UniProt Q99ZW2)
# Assay: Cas9 plasmid DNA cleavage assay, testing of surfactants
# Type: biochemical
# Details: for effect on Cas9 enzyme activity: FIG. 4, versus absence of surfactants/detergents, two RNA guides; for % cleavage: linearized pKan-C1 substrate DNA, 30 min at 30° C.
# Method: The reactions were stopped by heat inactivation of the enzyme at 65° C. for 15 minutes. Cleavage reactions were analyzed by Agilent Tape Station using Genomic Screen Tapes.
# Reaction mixtures were incubated at 30° C. for 30 minutes followed by heat inactivation of the enzyme. Table 1 lists the surfactants/detergents used at various concentrations and the resulting DNA template cleavage percentage.
# Chain of Cas9 (Q99ZW2 whole entry): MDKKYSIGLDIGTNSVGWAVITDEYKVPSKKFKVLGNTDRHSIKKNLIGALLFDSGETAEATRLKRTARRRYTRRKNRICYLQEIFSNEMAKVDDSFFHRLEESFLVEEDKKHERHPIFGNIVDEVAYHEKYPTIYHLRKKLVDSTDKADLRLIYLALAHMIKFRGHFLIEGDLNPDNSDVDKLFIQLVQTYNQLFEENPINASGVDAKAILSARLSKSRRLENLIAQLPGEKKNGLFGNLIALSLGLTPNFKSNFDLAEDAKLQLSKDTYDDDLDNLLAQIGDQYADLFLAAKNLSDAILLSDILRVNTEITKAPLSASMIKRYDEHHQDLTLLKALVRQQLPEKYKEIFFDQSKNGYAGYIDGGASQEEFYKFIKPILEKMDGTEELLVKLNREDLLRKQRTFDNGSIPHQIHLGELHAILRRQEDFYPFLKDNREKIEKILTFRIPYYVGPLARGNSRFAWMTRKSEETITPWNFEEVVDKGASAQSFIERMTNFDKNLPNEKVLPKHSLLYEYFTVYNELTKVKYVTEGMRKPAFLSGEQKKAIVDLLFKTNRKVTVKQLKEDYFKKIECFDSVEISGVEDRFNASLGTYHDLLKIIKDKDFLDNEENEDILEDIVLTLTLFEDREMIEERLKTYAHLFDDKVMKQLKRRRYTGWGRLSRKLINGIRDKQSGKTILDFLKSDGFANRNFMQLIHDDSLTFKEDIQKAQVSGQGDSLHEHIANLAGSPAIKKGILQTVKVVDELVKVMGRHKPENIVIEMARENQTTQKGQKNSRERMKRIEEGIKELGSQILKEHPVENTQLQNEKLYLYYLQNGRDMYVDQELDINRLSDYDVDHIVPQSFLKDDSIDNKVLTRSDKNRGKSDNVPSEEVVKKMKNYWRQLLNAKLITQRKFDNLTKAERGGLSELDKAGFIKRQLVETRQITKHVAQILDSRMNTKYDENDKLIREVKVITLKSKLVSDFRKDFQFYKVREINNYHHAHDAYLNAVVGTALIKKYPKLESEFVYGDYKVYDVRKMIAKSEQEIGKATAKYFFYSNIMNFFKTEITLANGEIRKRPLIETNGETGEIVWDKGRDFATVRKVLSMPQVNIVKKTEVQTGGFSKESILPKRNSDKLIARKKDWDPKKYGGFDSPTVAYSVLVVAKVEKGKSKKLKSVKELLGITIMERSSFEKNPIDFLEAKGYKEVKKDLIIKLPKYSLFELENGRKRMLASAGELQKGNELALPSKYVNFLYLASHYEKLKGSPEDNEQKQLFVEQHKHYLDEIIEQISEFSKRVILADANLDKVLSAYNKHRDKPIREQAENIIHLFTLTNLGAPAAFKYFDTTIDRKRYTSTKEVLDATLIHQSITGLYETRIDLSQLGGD
Molecule,effect on Cas9 enzyme activity,"% cleavage (Guide 601, detergent 0.025%) [%]","% cleavage (Guide 601, detergent 0.05%) [%]","% cleavage (Guide 601, detergent 0.1%) [%]","% cleavage (Guide 601, detergent 0.2%) [%]","% cleavage (Kan C1 Guide, detergent 0.025%) [%]","% cleavage (Kan C1 Guide, detergent 0.05%) [%]","% cleavage (Kan C1 Guide, detergent 0.1%) [%]","% cleavage (Kan C1 Guide, detergent 0.2%) [%]"
"C[C@H](CCC(=O)NCCC[N+](C)(C)CC(O)CS(=O)(=O)[O-])[C@H]1CC[C@H]2[C@@H]3[C@H](O)C[C@@H]4C[C@H](O)CC[C@]4(C)[C@H]3C[C@H](O)[C@]12C (stereo partly drawn) [Chapso, reference compound]",had no effect on Cas9 activity,0.52,0.50,0.51,0.54,0.43,0.43,0.45,0.44
octylphenoxypolyethoxyethanol [Triton X 100],improved enzyme activity; also recorded: significantly increased Cas9 activity,0.60,0.60,0.59,0.65,0.54,0.51,0.52,0.61
